Read-outs that look alike come from different tables or passages of the source.
Experiments:
[1] = system: K-562 (chronic myelogenous leukemia); assay: MTT-based viability assay, K-562; format: cell-based, human; details: for IC50: Homo sapiens, read-out: IC50 K-562
Description: (§1) After incubation with the tested compounds, an MTT test was performed as described previously. Optical densities were measured at 570 nm using a BioTek microplate reader (BioTek Instruments, Inc., Winooski, VT, USA). All measurements were carried out in a minimum of three biological replicates.
(§2) . The IC50 values describing the half-maximal effective concentration of each tested compound were calculated and are summarized in Table 2. […].

[2] = system: CCRF-CEM (acute lymphoblastic leukemia); assay: MTT-based viability assay, CCRF-CEM; format: cell-based, human; details: for IC50: Homo sapiens, CCRF-CEM, 48 h, read-out: IC50 CCRF-CEM
Description: as §1, §2

[3] = system: MCF-7 cells; assay: Annexin V/propidium iodide apoptosis, flow cytometry, MCF-7; details: for viability at 5 µM / viability at 10 µM: Homo sapiens, MCF7, 48 h, read-out: Viable; for Early apoptosis / Late apoptosis / Necrosis: mean±SD
Description: (§3) MCF-7 cells were seeded in 6-well plates at 1.2 × 10^5 cells/well, whereas CCRF-CEM and K-562 cells were seeded in 24-well plates at a density of 2 × 10^5/mL. Cells were treated with the tested compounds used in 5 µM and 10 µM concentrations. Then, the plates were incubated for 48 h. After exposure to the examined compounds, the cells were collected and centrifugated at 200× g at 4 °C for 5 min, washed twice in cold phosphate-buffered saline (PBS), and subsequently suspended in binding buffer at 1 × 10^6 cells/mL. Subsequently, 100-μL aliquots of the cell suspension were labeled according to the instructions of the respective manufacturer’s kit. Briefly, annexin V-fluorescein isothiocyanate and propidium iodide (BD Biosciences, Pharmingen, San Diego, CA, USA) were added to the cell suspension, and the mixture was vortexed, then incubated for 15 min at RT in the dark. A cold binding buffer (400 μL) was then added, and the cells were vortexed again and kept on ice. Flow cytometric measurements were performed within 1 h after labeling. Viable, necrotic, early, and late apoptotic cells were detected by flow cytometry using a BD FACSCanto II flow cytometer and analyzed using BD FACSDiva operating software (BD Biosciences, San Jose, CA, USA).

[4] = system: K-562 cells; assay: Cell cycle progression by flow cytometry (PI), K-562; format: cell-based, human; details: for K-562 cells in S phase (maximum): K-562, 15 µM, 48 h; for cell cycle arrest (phase, in words): K-562, 48 h
Description: MCF-7, CCRF-CEM, and K-562 cells were cultured in 6-well plates and treated with the tested compounds for 48 h. After exposure to the compounds, the cells were collected and washed with cold PBS and fixed at −20 °C in 70% ethanol for at least 24 h. Subsequently, cells were washed in PBS and stained with 50 μg/mL PI (propidium iodide) and 100 μg/mL RNase solution in PBS supplemented with 0.1% v/v Triton X-100 for 30 min in the dark at RT. Cellular DNA content was determined by flow cytometry employing a BD FACSCanto II flow cytometer (BD Biosciences, San Jose, CA, USA). The obtained DNA histograms were analyzed using MacCycle software (Phoenix Flow Systems, San Diego, CA, USA) for evaluation of the distribution of the cells in different phases of the cell cycle.
Since CK2 controls cell cycle progression and, consequently, its inhibition can affect the distribution of cells in the individual phases of the cell cycle, we tested the cell cycle progression in CCRF-CEM, K-562, and MCF-7 cells after treatment with 4 and rac-6. Representative plots DNA histograms with the calculations of cell percentages in each phase of the cell cycle are depicted in Figure 7. […] Accumulation of cells in sub-G1 indicates DNA degradation, as often seen in apoptotic cells, confirming the results obtained with annexin V and PI staining.

[5] = system: CCRF-CEM cells; assay: Annexin V/propidium iodide apoptosis, flow cytometry, CCRF-CEM; details: 48 h; for Early apoptosis / Late apoptosis / Necrosis: mean±SD; for viability at 5 µM / viability at 10 µM: Homo sapiens, read-out: Viable
Description: as §3

[6] = system: Vero cells; assay: MTT-based viability assay, non-cancerous Vero cells; format: cell-based, Cercopithecus aethiops; details: Chlorocebus sabaeus, 48 h, read-out: IC50 Vero
Description: as §1, §2

[7] = system: K-562 cells; assay: Annexin V/propidium iodide apoptosis, flow cytometry, K-562; details: for viability at 5 µM / viability at 10 µM: Homo sapiens, K562, 48 h, read-out: Viable; for Early apoptosis / Late apoptosis / Necrosis: mean±SD
Description: as §3

OC(CNc1nc2c(Br)c(Br)c(Br)c(Br)c2[nH]1)C(F)(F)F (racemic) [rac-6, 1,1,1-Trifluoro-3-[(4,5,6,7-tetrabromo-1H-benzimidazol-2-yl)amino]propan-2-ol]
IC50 ([1]; K562, MTT, 48 h): 17.7 ± 3.54 µM | SI (selectivity index) K-562 ([1]; IC50 Vero/IC50 cancer cells): 1.15 | IC50 ([2]; MTT): 11.8 ± 0.4 µM | SI (selectivity index) CCRF-CEM ([2]; IC50 Vero/IC50 cancer cells): 1.72 | viability at 5 µM [3]: 79 ± 1.94% | viability at 10 µM [3]: 69.1 ± 13.1% | Early apoptosis ([3]; MCF-7, 5 µM, 48 h): 1.18±1.08% | Late apoptosis ([3]; MCF-7, 5 µM, 48 h): 10.96±1.63% | Necrosis ([3]; MCF-7, 5 µM, 48 h): 8.94±1.14% | Early apoptosis ([3]; MCF-7, 10 µM, 48 h): 3.53±5.45% | Late apoptosis ([3]; MCF-7, 10 µM, 48 h): 19.05±7.40% | Necrosis ([3]; MCF-7, 10 µM, 48 h): 8.28±1.69% | induction of apoptosis (in words) ([3]; MCF-7, 10 µM, 48 h, statistically significant result): induced apoptosis | K-562 cells in S phase (maximum) [4]: 56.1% | cell cycle arrest (phase, in words) [4]: S-phase arrest | Early apoptosis ([5]; 5 µM): 2.75±0.07% | Late apoptosis ([5]; 5 µM): 18.85±3.61% | Necrosis ([5]; 5 µM): 2.45±0.07% | cells in early and late apoptosis ([5]; 10 µM): 47% | Early apoptosis ([5]; 10 µM): 2.30±0.42% | Late apoptosis ([5]; 10 µM): 44.05±4.03% | Necrosis ([5]; 10 µM): 5.00±1.41% | viability at 5 µM [5]: 76 ± 3.75% | viability at 10 µM [5]: 48.6 ± 2.26% | IC50 ([6]; MTT): 20.4 ± 0.41 µM | viability at 5 µM [7]: 87.97 ± 0.81% | viability at 10 µM [7]: 82.8 ± 3.68% | Early apoptosis ([7]; K-562, 5 µM, 48 h): 5.13±0.40% | Late apoptosis ([7]; K-562, 5 µM, 48 h): 5.97±1.02% | Necrosis ([7]; K-562, 5 µM, 48 h): 0.63±0.06% | percentage of total apoptotic K-562 cells ([7]; K-562, 10 µM, 48 h): 15.5% | Early apoptosis ([7]; K-562, 10 µM, 48 h): 4.67±1.21% | Late apoptosis ([7]; K-562, 10 µM, 48 h): 10.80±4.06% | Necrosis ([7]; K-562, 10 µM, 48 h): 1.70±0.60% | induction of apoptosis (in words) ([7]; K-562, 5 and 10 µM, 48 h): no significant apoptosis observed

CN(C)c1nc2c(Br)c(Br)c(Br)c(Br)c2[nH]1 [Compound 4, 4,5,6,7-Tetrabromo-N,N-dimethyl-1H-benzimidazol-2-amine, reference compound]
IC50 ([1]; K562, 48 h): 22.5 ± 6.09 µM | IC50 [2]: 18.9 ± 0.88 µM | viability at 5 µM [3]: 79 ± 2.76% | viability at 10 µM [3]: 70.3 ± 3.36% | Early apoptosis ([3]; MCF-7, 5 µM, 48 h): 0.98±0.62% | Late apoptosis ([3]; MCF-7, 5 µM, 48 h): 8.44±1.47% | Necrosis ([3]; MCF-7, 5 µM, 48 h): 11.62±2.01% | Early apoptosis ([3]; MCF-7, 10 µM, 48 h): 1.80±1.31% | Late apoptosis ([3]; MCF-7, 10 µM, 48 h): 15.94±3.58% | Necrosis ([3]; MCF-7, 10 µM, 48 h): 11.96±2.46% | K-562 cells in S phase (maximum) [4]: 57.7% | cell cycle arrest (phase, in words) [4]: S-phase arrest | Early apoptosis ([5]; 5 µM): 1.65±0.78% | Late apoptosis ([5]; 5 µM): 13.55±0.35% | Necrosis ([5]; 5 µM): 1.45±0.07% | Early apoptosis ([5]; 10 µM): 1.55±0.07% | Late apoptosis ([5]; 10 µM): 16.75±0.21% | Necrosis ([5]; 10 µM): 1.35±0.49% | viability at 5 µM [5]: 83.3 ± 0.57% | viability at 10 µM [5]: 80.35 ± 0.78% | IC50 [6]: 18.7 ± 0.33 µM | viability at 5 µM [7]: 92.3 ± 0.99% | viability at 10 µM [7]: 90.6 ± 4.27% | Early apoptosis ([7]; K-562, 5 µM, 48 h): 1.95±0.61% | Late apoptosis ([7]; K-562, 5 µM, 48 h): 4.70±1.21% | Necrosis ([7]; K-562, 5 µM, 48 h): 1.05±0.69% | percentage of total apoptotic K-562 cells ([7]; K-562, 10 µM, 48 h): 8.7% | Early apoptosis ([7]; K-562, 10 µM, 48 h): 1.33±0.67% | Late apoptosis ([7]; K-562, 10 µM, 48 h): 7.43±3.52% | Necrosis ([7]; K-562, 10 µM, 48 h): 0.67±0.31%
